Data reported in US7435837B2, “Dihydrobenzofuranyl alkanamine derivatives and methods for using same” (Wyeth, priority 2003, dated 2008).

What was measured:
human 5-HT2C receptor = biological target: T1, human 5-HT2C receptor (Homo sapiens, UniProt P28335); assay: 5-HT2C receptor-stimulated calcium mobilization (FLIPR) in CHO cells; assay type: cell-based; settings: for Emax: CHO, percentage of the response observed with a maximally effective concentration of 5-HT, read-out: 5-HT2C Function Emax (%); for EC50: calcium mobilization, CHO cells stably expressing human 5-HT2C, read-out: 5-HT2C Function EC50;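 as to all read-outs here: Fluo-3-AM fluorescence read on FLIPR every 1 s, agonist added after 10 baseline reads, response taken as peak minus lowest raw fluorescence count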
T1 sequence (P28335 33-458): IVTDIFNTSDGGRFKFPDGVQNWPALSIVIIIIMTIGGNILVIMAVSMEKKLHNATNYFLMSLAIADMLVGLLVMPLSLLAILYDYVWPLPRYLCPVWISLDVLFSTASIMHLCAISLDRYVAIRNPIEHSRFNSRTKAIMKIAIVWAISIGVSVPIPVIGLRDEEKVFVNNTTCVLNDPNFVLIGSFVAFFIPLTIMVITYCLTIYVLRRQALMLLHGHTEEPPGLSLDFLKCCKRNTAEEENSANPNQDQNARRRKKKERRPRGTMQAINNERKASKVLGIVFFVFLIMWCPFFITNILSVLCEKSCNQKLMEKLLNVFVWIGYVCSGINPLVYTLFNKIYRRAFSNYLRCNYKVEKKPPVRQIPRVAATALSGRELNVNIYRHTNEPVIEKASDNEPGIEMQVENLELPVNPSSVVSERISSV

[1] = biological target: T2, human 5-hydroxytryptamine-2C (h5-HT2C) receptor (Homo sapiens, UniProt P28335); assay: [125I]DOI binding to membranes of CHO cells expressing the human 5-HT2C receptor; settings: [125I]DOI radioligand, CHO cell membranes, room temperature 60 min; read-out: 5-HT2C Affinity Ki
T2 construct: expressed in transfected cells; host or cells: CHO (Chinese Hamster Ovary) cells; membranes
T2 sequence (P28335 33-458): T1 sequence (P28335 33-458)

| Emax (human 5-HT2C receptor) [%] | EC50 (human 5-HT2C receptor) [nM] | Ki [1] [nM] | Structure (SMILES) |
| --- | --- | --- | --- |
| 100 | 5.4 | 0.4 | Cc1ccccc1-c1cccc2c1OC(CN)C2 (racemic) [Example 47, (±)-1-[7-(2-methylphenyl)-2,3-dihydro-1-benzofuran-2-yl]methanamine] |
| 100 | 14 | 1 | NCC1Cc2cccc(-c3ccccc3F)c2O1 (racemic) [Example 50, (±)-1-[7-(2-fluorophenyl)-2,3-dihydro-1-benzofuran-2-yl]methanamine] |
| 80 | 45 | 1 | NCC1Cc2cccc(-c3ccccc3C(F)(F)F)c2O1 (racemic) [Example 53, (±)-1-{7-[2-(trifluoromethyl)phenyl]-2,3-dihydro-1-benzofuran-2-yl}methanamine] |
| 100 | 60 | 1 | Cc1cccc(C)c1-c1cccc2c1OC(CN)C2 (racemic) [Example 56, (±)-1-[7-(2,6-dimethylphenyl)-2,3-dihydro-1-benzofuran-2-yl]methanamine] |
| 100 | 127 | 2 | COc1ccccc1-c1cccc2c1OC(CN)C2 (racemic) [Example 59, (±)-1-[7-(2-methoxyphenyl)-2,3-dihydro-1-benzofuran-2-yl]methanamine] |
| 100 | 12 | 0.3 | NCC1Cc2cccc(-c3ccccc3Cl)c2O1 (racemic) [Example 60, (±)-1-[7-(2-chlorophenyl)-2,3-dihydro-1-benzofuran-2-yl]methanamine] |
| 30 | 1090 | 37 | CC(C)c1ccccc1-c1cccc2c1OC(CN)C2 (racemic) [Example 61, (±)-[7-(2-isopropylphenyl)-2,3-dihydro-1-benzofuran-2-yl]methylamine] |
| 100 | 70 | 13 | NCC1Cc2cccc(-c3cccc(F)c3)c2O1 (racemic) [Example 64, (±)-1-[7-(3-fluorophenyl)-2,3-dihydro-1-benzofuran-2-yl]methanamine] |
| 100 | 187 | 11 | NCC1Cc2cccc(-c3cccc(Cl)c3)c2O1 (racemic) [Example 65, (±)-1-[7-(3-chlorophenyl)-2,3-dihydro-1-benzofuran-2-yl]methanamine] |
| 90 | 144 | 5 | COc1cccc(-c2cccc3c2OC(CN)C3)c1 (racemic) [Example 68, (±)-1-[7-(3-methoxyphenyl)-2,3-dihydro-1-benzofuran-2-yl]methanamine] |
| 100 | 22 | 2 | Cc1ccc(-c2cccc3c2OC(CN)C3)cc1 (racemic) [Example 70, (±)-1-[7-(4-methylphenyl)-2,3-dihydro-1-benzofuran-2-yl]methanamine] |
| 100 | 41 | 5 | NCC1Cc2cccc(-c3ccc(F)cc3)c2O1 (racemic) [Example 73, (±)-1-[7-(4-fluorophenyl)-2,3-dihydro-1-benzofuran-2-yl]methanamine] |
| 90 | 25 | 3 | NCC1Cc2cccc(-c3ccc(Cl)cc3)c2O1 (racemic) [Example 76, (±)-1-[7-(4-chlorophenyl)-2,3-dihydro-1-benzofuran-2-yl]methanamine] |
| 95 | 24 | 2 | COc1ccc(-c2cccc3c2OC(CN)C3)cc1 (racemic) [Example 79, (±)-1-[7-(4-methoxyphenyl)-2,3-dihydro-1-benzofuran-2-yl]methanamine] |
| 95 | 275 | 15 | NCC1Cc2cccc(-c3ccc(C(F)(F)F)cc3)c2O1 (racemic) [Example 82, (±)-1 {7-[4-(trifluoromethyl)phenyl]-2,3-dihydro-1-benzofuran-2-yl}methanamine] |
| 100 | 7.9 | 1 | NCC1Cc2cccc(-c3ccc(Cl)cc3Cl)c2O1 (racemic) [Example 83, (±)-1-[7-(2,4-dichlorophenyl)-2,3-dihydro-1-benzofuran-2-yl]methanamine] |
| 90 | 20 | 0.8 | NCC1Cc2cc(Cl)cc(-c3ccccc3Cl)c2O1 (racemic) [Example 87, (±)-1-[5-chloro-7-(2-chlorophenyl)-2,3-dihydro-1-benzofuran-2-yl]methanamine] |

| Emax (human 5-HT2C receptor) [%] | EC50 (human 5-HT2C receptor) [nM] | Ki [1] [nM] | Structure (SMILES) |
| --- | --- | --- | --- |
| 100 | 65 | 1 | Cc1ccccc1-c1cc(Cl)cc2c1OC(CN)C2 (racemic) [Example 95, (±)-1-[5-chloro-7-(2-methylphenyl)-2,3-dihydro-1-benzofuran-2-yl]methanamine] |
| 60 | 838 | 21 | Cc1ccccc1-c1ccc(F)c2c1OC(CN)C2 (racemic) [Example 99, (±)-1-[4-fluoro-7-(2-methylphenyl)-2,3-dihydro-1-benzofuran-2-yl]methanamine] |
| 100 | 120 | 0.2 | NCC1Cc2cc(F)cc(-c3ccccc3Cl)c2O1 (racemic) [Example 100, (±)-1-[7-(2-chlorophenyl)-5-fluoro-2,3-dihydro-1-benzofuran-2-yl]methanamine] |
| 80 | 996 | 7 | NCC1Cc2cc(F)cc(-c3ccccc3)c2O1 (racemic) [Example 103, (±)-1-(5-fluoro-7-phenyl-2,3-dihydro-1-benzofuran-2-yl)methanamine] |
| 100 | 241 | 1 | Cc1ccccc1-c1cc(F)cc2c1OC(CN)C2 (racemic) [Example 104, (±)-1-[5-fluoro-7-(2-methylphenyl)-2,3-dihydro-1-benzofuran-2-yl]methanamine] |
| 100 | 93 | 1 | NCC1Cc2cc(F)cc(-c3ccccc3F)c2O1 (racemic) [Example 107, (±)-1-[5-fluoro-7-(2-fluorophenyl)-2,3-dihydro-1-benzofuran-2-yl]methanamine] |
| 95 | 39 | 4 | NCC1Cc2cc(F)cc(-c3ccccc3C(F)(F)F)c2O1 (racemic) [Example 108, (±)-1-{5-fluoro-7-[2-(trifluoromethyl)phenyl]-2,3-dihydro-1-benzofuran-2-yl}methanamine] |
| 40 | 3220 | 25 | NCC1Cc2c(F)c(F)cc(-c3ccccc3)c2O1 (racemic) [Example 109, (±)-(4,5-difluoro-7-phenyl-2,3-dihydro-1-benzofuran-2-yl)methylamine] |
| 70 | 1000 | 9 | Cc1ccccc1-c1cc(F)c(F)c2c1OC(CN)C2 (racemic) [Example 110, (±)-1-[4,5-difluoro-7-(2-methylphenyl)-2,3-dihydro-1-benzofuran-2-yl]methanamine] |
| 70 | 931 | 95 | NCC1Cc2c(cccc2-c2ccccc2C(F)(F)F)O1 (racemic) [Example 122, (±)-1-{4-[2-(trifluoromethyl)phenyl]-2,3-dihydro-1-benzofuran-2-yl}methanamine] |
| 90 | 6 | 2.5 | NCC1Cc2cccc(-c3c(F)cccc3F)c2O1 (racemic) [Example 139, (±)-1-[7-(2,6-difluorophenyl)-2,3-dihydro-1-benzofuran-2-yl]methanamine] |
| 90 | 0.72 | 0.3 | NCC1Cc2cccc(-c3c(Cl)cccc3Cl)c2O1 (racemic) [Example 140, (±)-1-[7-(2,6-dichlorophenyl)-2,3-dihydro-1-benzofuran-2-yl]methanamine] |
| 90 | 1 | 6.3 | COc1ccc(-c2cccc3c2OC(CN)C3)c(OC)c1 (racemic) [Example 143, (±)-1-[7-(2,4-dimethoxyphenyl)-2,3-dihydro-1-benzofuran-2-yl]methanamine] |
| 90 | 5 | 2.4 | NCC1Cc2cccc(-c3ccc(F)cc3F)c2O1 (racemic) [Example 146, (±)-1-[7-(2,4-difluorophenyl)-2,3-dihydro-1-benzofuran-2-yl]methanamine] |
| 90 | 43 | 9 | COc1cccc(-c2cccc3c2OC(CN)C3)c1OC (racemic) [Example 155, (±)-{[7-(2,3-dimethoxyphenyl)-2,3-dihydro-1-benzofuran-2-yl]methyl}amine] |
| 90 | 32 | 8 | Cc1ccc(C)c(-c2cccc3c2OC(CN)C3)c1 (racemic) [Example 161, (±)-{[7-(2,5-dimethylphenyl)-2,3-dihydro-1-benzofuran-2-yl]methyl}amine] |
| 100 | 24 | 13 | COc1ccc(OC)c(-c2cccc3c2OC(CN)C3)c1 (racemic) [Example 162, (±)-{[7-(2,5-dimethoxyphenyl)-2,3-dihydro-1-benzofuran-2-yl]methyl}amine] |
